The results in this text go back to patent US8138205B2, “Heteroarylalkoxy-substituted quinolone inhibitors of PDE4” (Kalypsys, Inc., priority 2006, dated 2012).

The target in one series is T1, PDE4B (Homo sapiens, UniProt Q07343).
T1 construct: hex-histidine (His6) (N); made in house
Description: PDE/AK Biological Activity Assay (coupled PDE/adenylate kinase bioluminescent assay). The series is classed as biochemical. To be noted: catalytic domain of PDE4B, read-out: PDE4 Enzyme IC50. The text has this: Phosphodiesterases regulate the activity of the second messenger cyclic adenosine monophosphate (cAMP) by hydrolyzing cAMP to adenosine monophosphate (AMP). We developed a coupled PDE/AK bioluminescent high-throughput assay to measure the activity of phosphodiesterases. In the PDE/AK assay, the AMP produced from the hydrolysis of cAMP by phosphodiesterase is converted to adenosine diphosphate (ADP) by the phosphotransferase activity of adenylate kinase (also known as ADK or myokinase). Adenylate kinase will catalyze the conversion of 1 mole of AMP and 1 mole of ATP into 2 moles of ADP. Thus the conversion of AMP to ADP will result in the subsequent loss of ATP. The decrease in ATP concentration can be monitored as light output using luciferase in a reaction that requires ATP to produce light. The PDE/AK assay uses luciferase, which catalyzes the production of light from ATP present in the reaction mix. The amount of emitted light is inversely proportional to the level of AMP present in the reaction. Test compounds are incubated with the phosphodiesterases and phosphodiesterase inhibitors will decrease the rate of cAMP hydrolysis and decrease the subsequent production of AMP. Thus phosphodiesterase inhibitors will decrease the conversion of ATP to ADP and result in the greatest emission of light.
Compounds may be screened for functional potency in in vitro biochemical assays for their ability to inhibit the activity of phosphodiesterase (PDE) enzymes. A coupled PDE/AK assay was utilized to measure the inhibitory activity of compounds on PDE isoforms. The catalytic domain of PDE4B was fused to an amino-terminus hex-histidine affinity tag and purified. PDE4B enzyme was incubated with compounds for 10 minutes. Cyclic AMP substrate, ATP and adenylate kinase were then added to the PDE enzyme mix and incubated for 45 minutes at room temperature. A commercial ATP detection assay, Perkin Elmer's easyLite ATP detection reagent, was then added to measure the relative amount of ATP present in the reaction. After 10 minute incubation, the luminescent signal was quantitated with either the Perkin Elmer Viewlux or Molecular Devices Acquest or Analyst. Roflumilast and Rolipram are the positive controls used in the assay.

The next series can be described thus: Solubility Protocol. It is filed as physicochemical. Particulars: aqueous buffer, thermodynamic from solid; pH 7.4, 0.1 M sodium phosphate buffer. Here is the method:
About 5 mg of a compound was mixed with 500 μL of pH 7.4, 0.1 M sodium phosphate buffer. The mixture was adjusted to the original pH of 7.4 and then mixed overnight or longer via rotary mixing. The sample was checked for pH and then filtered through a 0.45 μm filter. If the pH drifted away, the sample was adjusted to its original pH and mixed for at least 15 minutes before filtration. The filtrate was analyzed using HPLC.

T1 sequence (Q07343 330-659 limits assumed, species assumed): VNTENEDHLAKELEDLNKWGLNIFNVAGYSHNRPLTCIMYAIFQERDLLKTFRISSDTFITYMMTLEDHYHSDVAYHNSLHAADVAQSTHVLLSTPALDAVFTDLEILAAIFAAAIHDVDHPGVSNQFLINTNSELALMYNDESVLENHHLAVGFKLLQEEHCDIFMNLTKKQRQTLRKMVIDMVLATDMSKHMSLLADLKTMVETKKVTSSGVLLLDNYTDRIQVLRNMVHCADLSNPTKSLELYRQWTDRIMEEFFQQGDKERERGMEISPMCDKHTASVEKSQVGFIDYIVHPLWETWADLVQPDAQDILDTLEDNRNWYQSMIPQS

What is called IC50 is the point on the concentration scale where inhibition reaches its midpoint. By solubility is commonly meant the concentration that dissolves in the medium under given conditions. Read a high solubility as a readily soluble substance. In the case of `COc1ccc2c(Nc3c(Cl)cncc3Cl)cc(=O)[nH]c2c1OCCCC(=O)O` [Example 51, 4-(4-(3,5-dichloropyridin-4-ylamino)-7-methoxy-2-oxo-1,2-dihydroquinolin-8-yloxy)butanoic acid], the 50% inhibitory concentration (IC50) on PDE4B was less than 1000 nM. This compound also registered a solubility in the series “Solubility Protocol” not below 1000 µg/mL.
For `COc1ccc2c(Nc3c(C)cncc3C)cc(=O)[nH]c2c1OCCCCCCN1CCCCC1` [Example 36, 4-(3,5-Dimethylpyridin-4-ylamino)-7-methoxy-8-(6-(piperidin-1-yl)hexyloxy)quinolin-2(1H)-one], in that order: less than 1000 nM and not below 1000 µg/mL.
For `COc1ccc2c(Nc3c(C)cncc3C)cc(=O)[nH]c2c1OCCCCCCn1ccnc1` [Example 80, 8-(6-(1H-imidazol-1-yl)hexyloxy)-4-(3,5-dimethylpyridin-4-ylamino)-7-methoxyquinolin-2(1H)-one] the same measures were less than 1000 nM and not below 1000 µg/mL.
As to `COc1ccc2c(Nc3c(C)cncc3C)cc(=O)[nH]c2c1OCCCCCCCCC(=O)O` [Example 76, 9-(4-(3,5-dimethylpyridin-4-ylamino)-7-methoxy-2-oxo-1,2-dihydroquinolin-8-yloxy)nonanoic acid], the IC50 at PDE4B is less than 1000 nM. In “Solubility Protocol”, the solubility is less than 1000 µg/mL.
For `COc1ccc2c(Nc3c(Cl)cncc3Cl)cc(=O)[nH]c2c1OCCCCO` [Example 41, 4-(3,5-dichloropyridin-4-ylamino)-8-(4-hydroxybutoxy)-7-methoxyquinolin-2(1H)-one] the same measures were less than 1000 nM and not below 1000 µg/mL.
`COc1ccc2c(Nc3c(C)cncc3C)cc(=O)[nH]c2c1OCCCCCCCC(=O)O` [Example 75, 8-(4-(3,5-dimethylpyridin-4-ylamino)-7-methoxy-2-oxo-1,2-dihydroquinolin-8-yloxy)octanoic acid]: on PDE4B, the IC50 was less than 1000 nM. Also, in “Solubility Protocol”, the solubility is not below 1000 µg/mL.
For `COc1ccc2c(Nc3c(C)cncc3C)cc(=O)[nH]c2c1OCCCCCN(C)C` [Example 45, 8-(5-(dimethylamino)pentyloxy)-4-(3,5-dimethylpyridin-4-ylamino)-7-methoxyquinolin-2(1H)-one], in that order: less than 1000 nM and not below 1000 µg/mL.
As to `COc1ccc2c(Nc3c(Cl)cncc3Cl)cc(=O)[nH]c2c1OCCCCCN1CCOCC1` [Example 49, 4-(3,5-dichloropyridin-4-ylamino)-7-methoxy-8-(5-morpholinopentyloxy)quinolin-2(1H)-one], the IC50 on PDE4B was less than 1000 nM. In addition, the solubility in “Solubility Protocol” was not below 1000 µg/mL.
With `COc1ccc2c(Nc3c(C)cncc3C)cc(=O)[nH]c2c1OCCCCCC(=O)O` [Example 73, 6-(4-(3,5-dimethylpyridin-4-ylamino)-7-methoxy-2-oxo-1,2-dihydroquinolin-8-yloxy)hexanoic acid], the concentration for half-maximal inhibition (IC50) on PDE4B was less than 1000 nM. The same compound gave a solubility in the series “Solubility Protocol” not below 1000 µg/mL.
For `COc1ccc2c(Nc3c(Cl)cncc3Cl)cc(=O)[nH]c2c1OCCCCCCN(C)CCCN(C)C` [Example 27, 4-(3,5-Dichloropyridin-4-ylamino)-8-(6-((3-(dimethylamino)propyl)(methyl)amino)hexyloxy)-7-methoxyquinolin-2(1H)-one] the same measures were less than 1000 nM and not below 1000 µg/mL.
Consider `COc1ccc2c(Nc3c(Cl)cncc3Cl)cc(=O)[nH]c2c1OCCCCCCc1nn[nH]n1` [Example 71, 8-(6-(2H-tetrazol-5-yl)hexyloxy)-4-(3,5-dichloropyridin-4-ylamino)-7-methoxyquinolin-2(1H)-one], for which, on PDE4B, the IC50 was less than 1000 nM. The compound further showed a solubility in the series “Solubility Protocol” not below 1000 µg/mL.
Regarding `COc1ccc2c(Nc3c(C)cncc3C)cc(=O)[nH]c2c1OCCCCCCN1CCCC1` [Example 37, 4-(3,5-Dimethylpyridin-4-ylamino)-7-methoxy-8-(6-(pyrrolidin-1-yl)hexyloxy)quinolin-2(1H)-one], on PDE4B, the IC50 is less than 1000 nM. Moreover, the solubility in “Solubility Protocol” is not below 1000 µg/mL.
Consider `COc1ccc2c(Nc3c(Cl)cncc3Cl)cc(=O)[nH]c2c1OCCCCCCN` [Example 28, 8-(6-Aminohexyloxy)-4-(3,5-dichloropyridin-4-ylamino)-7-methoxyquinolin-2(1H)-one], for which the IC50 on PDE4B is less than 1000 nM. Moreover, the solubility in the series “Solubility Protocol” was not below 1000 µg/mL.
For `COc1ccc2c(Nc3c(Cl)cncc3Cl)cc(=O)[nH]c2c1OCCCCc1nn[nH]n1` [Example 68, 8-(4-(2H-tetrazol-5-yl)butoxy)-4-(3,5-dichloropyridin-4-ylamino)-7-methoxyquinolin-2(1H)-one] the same measures were less than 1000 nM and not below 1000 µg/mL.
For `COc1ccc2c(Nc3c(Cl)cncc3Cl)cc(=O)[nH]c2c1OCCCCCCCCC(=O)O` [Example 55, 9-(4-(3,5-dichloropyridin-4-ylamino)-7-methoxy-2-oxo-1,2-dihydroquinolin-8-yloxy)nonanoic acid], in that order: less than 1000 nM and not below 1000 µg/mL.
For `COc1ccc2c(Nc3c(Cl)cncc3Cl)cc(=O)[nH]c2c1OCCCCCCN(C)CCCO` [Example 33, 4-(3,5-Dichloropyridin-4-ylamino)-8-(6-((3-hydroxypropyl)(methyl)amino)hexyloxy)-7-methoxyquinolin-2(1H)-one], in that order: less than 1000 nM and not below 1000 µg/mL.
Take `COCCOCCOCCCOc1c(OC)ccc2c(Nc3c(Cl)cncc3Cl)cc(=O)[nH]c12` [Example 70, 4-(3,5-dichloropyridin-4-ylamino)-7-methoxy-8-(3-(2-(2-methoxyethoxy)ethoxy)propoxy)quinolin-2(1H)-one]: the IC50 on PDE4B is less than 1000 nM. Besides, the solubility in the series “Solubility Protocol” was not below 1000 µg/mL.
For `COc1ccc2c(Nc3c(C)cncc3C)cc(=O)[nH]c2c1OCCCn1ccnc1` [Example 77, 8-(3-(1H-imidazol-1-yl)propoxy)-4-(3,5-dimethylpyridin-4-ylamino)-7-methoxyquinolin-2(1H)-one], in that order: less than 1000 nM and less than 1000 µg/mL.
For `COc1ccc2c(Nc3c(Cl)cncc3Cl)cc(=O)[nH]c2c1OCCCCCCN1CCCNCC1` [Example 25, 8-(6-(1,4-Diazepan-1-yl)hexyloxy)-4-(3,5-dichloropyridin-4-ylamino)-7-methoxyquinolin-2(1H)-one] the same measures were less than 1000 nM and not below 1000 µg/mL.
As for `COc1ccc2c(Nc3c(Cl)cncc3Cl)cc(=O)[nH]c2c1OCCCc1nn[nH]n1` [Example 67, 8-(3-(2H-tetrazol-5-yl)propoxy)-4-(3,5-dichloropyridin-4-ylamino)-7-methoxyquinolin-2(1H)-one], at PDE4B, the IC50 was less than 1000 nM. In the series “Solubility Protocol”, this compound gave a solubility not below 1000 µg/mL.
For `COc1ccc2c(Nc3c(Cl)cncc3Cl)cc(=O)[nH]c2c1OCCCCC(=O)N[C@@H](CO)C(=O)O` [Example 64, (S)-2-(5-(4-(3,5-dichloropyridin-4-ylamino)-7-methoxy-2-oxo-1,2-dihydroquinolin-8-yloxy)pentanamido)-3-hydroxypropanoic acid] the same measures were less than 1000 nM and not below 1000 µg/mL.
For `COc1ccc2c(Nc3c(Cl)cncc3Cl)cc(=O)[nH]c2c1OCCCCCCN1CCCN(C)CC1` [Example 26, 4-(3,5-Dichloropyridin-4-ylamino)-7-methoxy-8-(6-(4-methyl-1,4-diazepan-1-yl)hexyloxy)quinolin-2(1H)-one] the same measures were less than 1000 nM and not below 1000 µg/mL.
For `COc1ccc2c(Nc3c(Cl)cncc3Cl)cc(=O)[nH]c2c1OCCCCCCNCCO` [Example 29, 4-(3,5-Dichloropyridin-4-ylamino)-8-(6-(2-hydroxyethylamino)hexyloxy)-7-methoxyquinolin-2(1H)-one] the same measures were less than 1000 nM and not below 1000 µg/mL.
Consider `COc1ccc2c(Nc3c(Cl)cncc3Cl)cc(=O)[nH]c2c1OCC(N)=O` [Example 50, 2-(4-(3,5-dichloropyridin-4-ylamino)-7-methoxy-2-oxo-1,2-dihydroquinolin-8-yloxy)acetamide], for which, at PDE4B, the IC50 was less than 1000 nM. The compound further registered a solubility in the series “Solubility Protocol” not below 1000 µg/mL.
